In publication PMC7221086, “Trefoil factors share a lectin activity that defines their role in mucus” (Nature Communications, 2020):
Changes are numbered by the printed parent chain. Where no end group is shown, it is not given here.

What was measured:
[1] = tested on: pMucinred+GH89 (pMucinred treated with CpGH89); assay: TFF-mucin ELISA on pMucinred+GH89; format: binding, porcine; conditions: immobilised GH89-treated mucin, Strep-HRP detection
Experimental: (§1) A 50 mg ml^−1 stock of pMucin was prepared by resuspending porcine gastric mucin type III (Sigma) in PBS + 50 mM EDTA + 0.02% NaN3. This pMucin (1 ml) was dialysed (100 kDa NMWL) against 4 M guanidium hydrochloride (2 × 2.0 l) over 48 h at 4 °C. Precipitate was removed by centrifugation (8000×g, 20 min, 4 °C) and the soluble supernatant dialysed (100 kDa NMWL) against PBS (2 × 2.0 l) over 48 h at 4 °C. Half of this sample was treated with 50 µg ml^−1 CpGH89[29] at 30°C for 16 h. Both mucin samples were reduced with 10 mM DTT (30 min, 50 °C) then alkylated by the addition of 30 mM iodoacetamide (30 min, 50 °C). These samples were dialysed (100 kDa NMWL) against PBS (2 × 2.0 l) over 48 h at 4 °C. The concentration of all three mucin stock solutions were standardised to A280 = 1.5 using PBS. These samples were aliquoted, flash frozen in liquid N2 and stored at −80 °C.
(§2) A solution of pMucin, pMucinred or pMucinred+GH89 (100 µl, 1 µg ml^−1) in 100 mM bicarbonate buffer pH 9.4, was added to each well of a 96-well plate (flat-bottom Nunc MaxiSorp, ThermoFisher) and the plate gently nutated for 2 h at 25 °C. The wells were rinsed four times with 200 µl PBS-T (50 mM NaPi pH 7.4, 150 mM NaCl, 0.2% Tween-20) then blocked for 1 h at 25 °C with blocking buffer (50 mM NaPi pH 7.4, 150 mM NaCl, 5% w/v BSA). The wells were rinsed four times with 200 µl PBS-T then incubated with 100 µl blocking buffer containing TFF (various concentrations) and 1:1000 Strep-HRP (ThermoFisher) for 1 h at 25 °C. The wells were rinsed four times with 200 µl PBS-T then developed by adding 100 µl of TMB-Turbo (ThermoFisher) and incubated for 30 min at 25 °C. The reaction was quenched by the addition of 100 µl of 2 M H2SO4. Absorbance at 450 nm was read within 20 min using an EnVision 2105 Multimode Plate Reader (PerkinElmer). Data was analysed using Prism 8 (GraphPad).

[2] = tested on: pMucinred (reduced and alkylated pMucin); assay: TFF-mucin ELISA on pMucinred; format: binding, porcine; conditions: immobilised pMucinred, Strep-HRP detection
Experimental: as §1, §2

[3] = tested on: pMucin (porcine gastric mucin); assay: TFF-mucin ELISA on pMucin; format: binding; conditions: immobilised pMucin, Strep-HRP detection
Experimental: as §1, §2

TFF2 (human TFF2) = target: T1, TFF2 (human TFF2) (Homo sapiens, UniProt Q03403, N38Q); assay: Isothermal titration calorimetry of glycans against TFF2; format: binding; conditions: ITC, pH 7.4, 25 °C; TFF2
T1 construct: with an N-terminal gp67 signal peptide and a C-terminal His10-tag; gp67 signal peptide (N, cleaved yes); made in house; host or cells: Sf21 insect cells (baculovirus), secreted
T1 sequence (Q03403 24-129 N38Q): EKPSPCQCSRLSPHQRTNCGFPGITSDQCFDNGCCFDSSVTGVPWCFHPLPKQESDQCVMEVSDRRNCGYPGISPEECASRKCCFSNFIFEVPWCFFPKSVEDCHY
Experimental: (§3) All TFF and ligand stock solutions were prepared in the same buffer (50 mM HEPES, 50 mM NaCl, pH 7.4) and filtered (0.22 µm) just prior to titration. All control and non-binding ligand experiments were performed as 12 × 3.18 µl injections. For experiments with GlcNAc-α-1,4-Gal (Carbosynth), 25 × 1.58 µl injections were used. All runs were performed at 25 °C in a MicroCal iTC200 (Malvern).
(§4) Supplementary Table 2: Parameters used for ITC and thermodynamic terms determined for
(§5) GlcNAc-α-1,4-Gal binding to the TFFs. Data are presented as mean values ±SD for three
(§6) Protein GlcNAc-α- T n Kd ΔH ΔS -TΔS ΔG
(§7) (30 µM) 1,4-Gal (µM) (℃) (µM) (kcal · mol-1) (cal · mol-1 · K-1) (kcal · mol-1) (kcal · mol-1)

[4] = target: T2, mTFF1 (human TFF1, monomeric) (Homo sapiens, UniProt P04155); assay: Isothermal titration calorimetry of glycans against mTFF1; format: binding; conditions: ITC, pH 7.4, 25 °C; TFF1
T2 construct: PelB signal peptide (N, cleaved yes); His6 (C, cleaved yes); made in house; host or cells: E. coli T7 Express, periplasmic extraction
T2 sequence (P04155 with tags, fused parts or gaps): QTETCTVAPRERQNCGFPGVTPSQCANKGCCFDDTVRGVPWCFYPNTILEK
Experimental: as §3, §4, §5, §6, §7

[5] = target: T3, mTFF3 (human TFF3, monomeric) (Homo sapiens, UniProt Q07654, C78S); assay: Isothermal titration calorimetry of glycans against mTFF3; format: binding; conditions: ITC, pH 7.4, 25 °C; TFF3
T3 construct: with an N-terminal PelB signal peptide, no interchain Cys, and a C-terminal His6-tag; PelB signal peptide (N, cleaved yes); His6 (C, cleaved yes); made in house; host or cells: E. coli T7 Express, periplasmic extraction
T3 sequence (Q07654 22-80 C78S): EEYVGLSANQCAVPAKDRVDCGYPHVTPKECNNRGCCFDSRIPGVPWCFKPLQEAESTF
Experimental: as §3, §4, §5, §6, §7

pMucin = assay: Mucin agglutination assay; format: biochemical, porcine; conditions: pMucin 0.02% w/v, 405 nm, 25 °C
Experimental: Mucin agglutination assays were performed at 25 °C on an EnVision 2105 Multimode Plate Reader (PerkinElmer) to monitor transmission at 405 nm over time. The assay was performed in a 96-well plate (Corning, polystyrene flat bottom clear) with 50 µl per well. pMucin concentration was kept consistent at 0.02% w/v and TFF concentration varied (0, 1, 2, 4, 8, 16 or 32 µM). The resulting curves were normalised to percent decrease in signal, averaged over three replicates and plotted using Prism 8 (GraphPad).

[6] = target: reduced and alkylated pMucin; assay: ELISA; conditions: read off a plot
[7] = target: commercially-available porcine gastric mucin (porcine)

For “mTFF1bio: site-selectively biotinylated monomeric TFF1 ({Avi‑tag(biotin)}-EAQTETCTVAPRERQNCGFPGVTPSQCANKGCCFDDTVRGVPWCFYPNTIDVPPEEECEF; also: one free cysteine, interchain disulfide not formed)”, the “binding to pMucinred+GH89 by ELISA” value [1] was “no significant binding”, the “binding / affinity to pMucinred by ELISA” value [2] was “robust binding” and the “binding to pMucin by ELISA” value [3] was “robust binding”.

With CC(=O)N[C@H]1[C@@H](Oc2ccc([N+](=O)[O-])cc2)O[C@H](CO)[C@@H](O)[C@@H]1O [4-nitrophenyl α-D-GlcNAc] the “affinity by ITC” value (TFF2 (human TFF2)) was “no detectable affinity”, the “affinity by ITC” value [4] was “no detectable affinity” and the “affinity by ITC” value [5] was “no detectable affinity”.

In the case of “Dimeric TFF3: dimeric wild-type TFF3 construct used in the pMucin agglutination assay ({Avi‑tag(biotin)}-EEYVGLSANQCAVPAKDRVDCGYPHVTPKECNNRGCCFDSRIPGVPWCFKPLQEAECTF; also: homodimer via interchain disulfide, Cys not given here)”, the “lowest concentration inducing dose-dependent increase in light scattering over time” value (pMucin) is reported as 4 µM.

Work on “biotinylated dimeric TFF1 (from UniProt P04155) W41A” yielded a response (Abs. @ 450 nm) ([6]; 25 nM TFF, parent: est. 1.3) of 0.06 and a response (Abs. @ 450 nm) ([6]; 1000 nM TFF, parent: est. 1.3) of 0.045.

With “mTFF3bio: site-selectively biotinylated monomeric TFF3 ({Avi‑tag(biotin)}-EEYVGLSANQCAVPAKDRVDCGYPHVTPKECNNRGCCFDSRIPGVPWCFKPLQEAECTF; also: one free cysteine, interchain disulfide not formed)” the “binding to pMucinred+GH89 by ELISA” value [1] was “no significant binding”, the “binding / affinity to pMucinred by ELISA” value [2] was “robust binding” and the “binding to pMucin by ELISA” value [3] was “robust binding”.

In the case of “dTFF3bio-D20A: biotinylated dimeric TFF3 with D20A mutation ({Avi‑tag(biotin)}-EEYVGLSANQCAVPAKDRVACGYPHVTPKECNNRGCCFDSRIPGVPWCFKPLQEAECTF; also: homodimer via interchain disulfide, Cys not given here)”, the “binding / affinity to pMucinred by ELISA” value [2] is reported as “barely any detectable affinity”.

“Dimeric TFF1: dimeric wild-type TFF1 construct used in the pMucin agglutination assay ({Avi‑tag(biotin)}-EAQTETCTVAPRERQNCGFPGVTPSQCANKGCCFDDTVRGVPWCFYPNTIDVPPEEECEF; also: homodimer via interchain disulfide, Cys not given here)” was tested, and the “lowest concentration inducing dose-dependent increase in light scattering over time” value (pMucin) was 4 µM.

“biotinylated dimeric TFF3 (from UniProt Q07654) D20A” gave a response (Abs. @ 450 nm) ([6]; 25 nM TFF, parent: est. 1.2) of 0.04 and a response (Abs. @ 450 nm) ([6]; 1000 nM TFF, parent: est. 1.2) of 0.095.

Work on “biotinylated dimeric TFF3 (from UniProt Q07654) W47A” yielded a response (Abs. @ 450 nm) ([6]; 25 nM TFF, parent: est. 1.2) of 0.035 and a response (Abs. @ 450 nm) ([6]; 1000 nM TFF, parent: est. 1.2) of 0.04.

For “dTFF3bio-W47A: biotinylated dimeric TFF3 with W47A mutation ({Avi‑tag(biotin)}-EEYVGLSANQCAVPAKDRVDCGYPHVTPKECNNRGCCFDSRIPGVPACFKPLQEAECTF; also: homodimer via interchain disulfide, Cys not given here)”, the “binding / affinity to pMucinred by ELISA” value [2] was “completely inactive”.

OC[C@H]1O[C@H](O[C@H]2[C@H](O)[C@@H](O)[C@H](O)O[C@@H]2CO)[C@H](O)[C@@H](O)[C@@H]1O [maltose] was tested, and the “affinity by ITC” value (TFF2 (human TFF2)) was “failed to show any affinity”, the “affinity by ITC” value [4] was “failed to show any affinity” and the “affinity by ITC” value [5] was “failed to show any affinity”.

With “biotinylated dimeric TFF1 (from UniProt P04155) N14A” the response (Abs. @ 450 nm) ([6]; 25 nM TFF, parent: est. 1.3) was 0.68 and the response (Abs. @ 450 nm) ([6]; 1000 nM TFF, parent: est. 1.3) was 1.

In the case of CC(=O)N[C@H]1[C@@H](OCc2ccccc2)O[C@H](CO)[C@@H](O)[C@@H]1O [benzyl α-D-GlcNAc], the “affinity by ITC” value (TFF2 (human TFF2)) is reported as “no detectable affinity”, the “affinity by ITC” value [4] is reported as “no detectable affinity” and the “affinity by ITC” value [5] is reported as “no detectable affinity”.

For OC[C@H]1O[C@H](O[C@@H]2[C@H](O)[C@@H](O)C(O)O[C@@H]2CO)[C@H](O)[C@@H](O)[C@H]1O (stereo partly drawn) [Gal-α-1,4-Gal], the “affinity by ITC” value (TFF2 (human TFF2)) was “failed to show any affinity”, the “affinity by ITC” value [4] was “failed to show any affinity” and the “affinity by ITC” value [5] was “failed to show any affinity”.

With CC(=O)N[C@H]1C(O)O[C@H](CO)[C@@H](O)[C@@H]1O (stereo partly drawn) [D-GlcNAc] the “affinity by ITC” value (TFF2 (human TFF2)) was “no detectable affinity”, the “affinity by ITC” value [4] was “no detectable affinity” and the “affinity by ITC” value [5] was “no detectable affinity”.

With “dTFF1bio: biotinylated dimeric TFF1 construct, wild type ({Avi‑tag(biotin)}-EAQTETCTVAPRERQNCGFPGVTPSQCANKGCCFDDTVRGVPWCFYPNTIDVPPEEECEF; also: homodimer via interchain disulfide, Cys not given here)” the “binding to pMucinred+GH89 by ELISA” value [1] was “does not bind”.

B1: biotinylated dimeric TFF1 (natural protein)
chain: EAQTETCTVAPRERQNCGFPGVTPSQCANKGCCFDDTVRGVPWCFYPNTIDVPPEEECEF
modifications: also: dimer via interchain disulfide, biotin on Avi-tag (BirA), tag not in chain
Molecule B1 has an EC50 of the glycoside hydrolase CpGH89 (0-512 nM, 20 h, 30 °C) for liberating bound dTFF1bio from immobilised pMucin, read by ELISA [7] of 0.8 nM.

B2: TFF2bio: biotinylated TFF2, positive control (protein)
chain: T1 sequence (Q03403 24-129 N38Q) with Q15N
modifications: biotin, non-specific (EZ-Link NHS-PEG4-biotin); left off: His10, C-terminal, state not stated
notes: biotinylated TFF2, positive control
In the case of B2, the “binding to pMucinred+GH89 by ELISA” value [1] is reported as “no significant binding”, the “binding / affinity to pMucinred by ELISA” value [2] is reported as “robust binding” and the “binding to pMucin by ELISA” value [3] is reported as “robust binding”.

B3: biotinylated dimeric TFF3 (natural protein)
chain: T3 sequence (Q07654 22-80 C78S) with S57C
modifications: also: dimer via interchain disulfide, biotin on Avi-tag (BirA), tag not in chain
In the case of B3, the EC50 of the glycoside hydrolase CpGH89 (0-512 nM, 20 h, 30 °C) for liberating bound dTFF3bio from immobilised pMucin, read by ELISA [7] is reported as 0.4 nM.
